# According to patent US9163020B2, “Azaindole compounds, synthesis thereof, and methods of using the same” (Global Alliance for TB Drug Development, priority 2013, dated 2015):
# Read-outs that look alike come from different tables or passages of the source.
# Tests used:
# [1] = test system: Mycobacterium tuberculosis (Mtb) H37Rv ATCC 27294; assay: microbe, parasite or virus in culture; assay type: cell-based; conditions: Mycobacterium tuberculosis
# in vivo = conditions: male, Wistar, rat, po, 100 mg/kg
# [2] = test system: hypoxia induced non-replicating persistent (NRP) Mtb cells; assay: Activity against hypoxia induced non-replicating persistent (NRP) Mtb (HBC, Wayne model); assay type: cell-based, Mycobacterium tuberculosis; conditions: for Mtb H37Rv HBC: Table 5
# [3] = test system: Mycobacterium tuberculosis (Mtb) H37Rv; assay: Mtb minimal bactericidal concentration (MBC), plating from MIC plates; assay type: cell-based; conditions: Table 5, read-out: Mtb H37Rv MBC
# Procedure: Aliquots from sample wells (MIC and higher) from the MIC plates were diluted 1:10 and plated on 7H10 agar plates. Plates were incubated at 37° C. for 3-4 weeks, CFU was enumerated.
# [4] = test system: A549 human lung carcinoma cells; assay type: cell-based
# Procedure: The in vitro cytotoxicity of compounds were measured against A549 human lung carcinoma cells as describedin Eakin et. al (2012). Briefly, A549 cells (ATCC) were grown in RPMI medium (GIBCO-BRL) containing 10% heat-inactivated fetal bovine serum (GIBCO-BRL) and 1 mM L-glutamine (GIBCO-BRL) at a density of 1,000 cells/well. After incubation of the cells with compound in a CO2 atmosphere at 37° C. for 72 hours, cell viability was determined following addition of […] of resazurin solution (Sigma), by measuring fluorescence (excitation at 535 nm, emission at 590 nm) using a fluorimeter.
# [5] = Table 5, read-out: Mtb H37Rv MIC
smiles,measurement,setting,value
"COc1ncnc(Cn2cc(C(=O)NCC(F)F)c3ncc(C)cc32)c1C [Compound 30, N-(2,2-difluoroethyl)-1-((6-methoxy-5-methylpyrimidin-4-yl)methyl)-6-methyl-1H-pyrrolo[3,2-b]pyridine-3-carboxamide]",MIC,"[1]; Table 1, read-out: Mtb MIC",< 0.391 µM
same,AUC(0-inf),in vivo,23.3 ± 11.7 µM·h
same,Cmax,in vivo,3.4 ± 2 µM
same,Tmax,in vivo,3.3 ± 2.3 h
same,half-life,in vivo,198 ± 66 min
NNC(=O)c1ccncc1 [Isoniazid],reduction in the bacterial CFU of NRP Mtb,[2],no reduction
"Cc1ccc(Cn2cc(C(=O)NCCF)c3ncccc32)c(C)c1 [Compound 31, 1-(2,4-dimethylbenzyl)-N-(2-fluoroethyl)-1H-pyrrolo[3,2-b]pyridine-3-carboxamide]",MIC,"[1]; Table 1, read-out: Mtb MIC",1.56 µM
same,MIC,[1]; [5],1.56 to 3.12 µM
same,MBC,[3],3.12 to 6.25 µM
same,Mtb H37Rv HBC,[2],12.5 to 25 µM
same,MMIC (A549),"[4]; human, 72 h",>82 µM
"COc1cccc(F)c1Cn1cc(C(=O)NCC2CC2)c2ncccc21 [Compound 32, N-(cyclopropylmethyl)-1-(2-fluoro-6-methoxybenzyl)-1H-pyrrolo[3,2-b]pyridine-3-carboxamide]",MIC,"[1]; Table 1, read-out: Mtb MIC",1.56 µM
same,MIC,[1]; [5],1.56 to 3.12 µM
same,MBC,[3],1.56 to 6.25 µM
same,Mtb H37Rv HBC,[2],>200 µM
same,MMIC (A549),[4]; Table 5,>100 µM
"COc1cnc2c(C(=O)NCC(F)F)cn(Cc3ncnc(OC)c3C)c2c1 [Compound 37, N-(2,2-difluoroethyl)-6-methoxy-1-((6-methoxy-5-methylpyrimidin-4-yl)methyl)-1H-pyrrolo[3,2-b]pyridine-3-carboxamide]",MIC,"[1]; Table 1, read-out: Mtb MIC",< 0.39 µM
"COc1cnc2c(C(=O)NCCO)cn(Cc3ncnc(OC)c3C)c2c1 [Compound 38, N-(2-hydroxyethyl)-6-methoxy-1-((6-methoxy-5-methylpyrimidin-4-yl)methyl)-1H-pyrrolo[3,2-b]pyridine-3-carboxamide]",MIC,"[1]; Table 1, read-out: Mtb MIC",0.78 µM
"Cc1cnc2c(C(=O)NCCO)cn(Cc3ncnc(N(C)C)c3C)c2c1 [Compound 34, 1-((6-(dimethylamino)-5-methylpyrimidin-4-yl)methyl)-N-(2-hydroxyethyl)-6-methyl-1H-pyrrolo[3,2-b]pyridine-3-carboxamide]",MIC,"[1]; Table 1, read-out: Mtb MIC",< 0.39 µM
same,AUC(0-inf),in vivo,166 ± 43.9 µM·h
same,Cmax,in vivo,31.5 ± 3 µM
same,Tmax,in vivo,2 h
same,half-life,in vivo,276 min
